The values that follow are results of earlier work, collected in patent EP1165099B1, “ANGIOTENSIN II AND ANALOGS THEREOF FOR LIMITING SCAR AND ADHESION FORMATION” (UNIVERSITY OF SOUTHERN CALIFORNIA, priority 1999, dated 2006).

The data set has as its system AT2 receptor.

Consider Asp-Arg-Val-Tyr-Ile-His-Pro-Phe [AII], for which, for the setting “ratio of affinity AT2 over AT1”, the “affinity for AT2 than AT1” value was 100 times.

Regarding “Asp-Arg-Val-Tyr-Ile-Xaa-Pro-Phe [(p-NH2-Phe)6-AII]”, the binding characteristics result (experimental models of the cited literature) is reported as “comparable to AT2 antagonists”.
